Laboratory results as given in US5360803A, “Composition and method for treating cancer” (Dan Farber Cancer Institute, priority 1992, dated 1994).
Like-named read-outs stand apart in the source and are kept apart here.

Experiments:
[1] = tested on: human melanoma LOX; test: survival of nude mice implanted with human melanoma LOX; type: in vivo, male athymic Swiss nu/nu mouse (human tumor); conditions: Mus musculus, ip, 24 h, read-out: T/C
Experimental: LOX, a human melanoma cell line, grown subcutaneously in nude mice was excised, trypsinized to yield a single cell suspension using a metal grid with a […] mesh. […] Five million viable trypan blue negative cells made up in 0.1 ml of Dulbecco modified Eagle medium (DMFE) were injected into the peritoneal cavity of a male athymic Swiss nu/nu mouse. The control group and each treatment group consisted of 5 to 10 mice. Treatment was commenced the following day by intraperitoneal injection.
Ten control mice received 0.25 ml of 2% dextrose on these days the treated groups were injected with the compounds of this invention. […] T/C is the ratio, expressed as a percentage of the mean survival age of the treated group to the mean survival age of the untreated control group.

[2] = tested on: CV-1 cells; test: selective killing assay, colony number reduced to 50% of control, normal monkey kidney epithelial cell line CV-1; type: cell-based; conditions: 24 hours treatment; for IC50: Primates
From the text: The control received culture media only.

[3] = tested on: CX-1 cells; test: selective killing assay, colony number reduced to 50% of control, human colon carcinoma cell line CX-1; type: cell-based; conditions: for Selectivity (ratio of IC50 for CV-1 and IC50 for CX-1): CV-1/CX-1; for IC50: Homo sapiens, CX-1, Table III; for IC50 / CX-1 (IC50): human colon carcinoma, 24 hours treatment, colony count after 7 to 10 days; for CX-1 (IC50): Table III;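 for all read-outs here: colonies stained with crystal violet and counted, control cells given medium alone, exposure at 37 °C, normal monkey kidney epithelial CV-1 cells as the non-cancer comparator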
[4] = tested on: EJ cells; test: colony assay of Example 1 with human bladder carcinoma EJ cell line; type: cell-based; conditions: for Selectivity: CV-1/EJ; for IC50: Homo sapiens, EJ, 24 h;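 for all read-outs here: colony formation assay with 24 h compound exposure at 37 °C, then 7–10 days drug-free regrowth, colonies stained with crystal violet, controls given medium alone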
[5] = tested on: LOX cells; test: colony assay of Example 1 with human melanoma LOX cell line; type: cell-based; conditions: for Selectivity: CV-1/LOX; for IC50: Homo sapiens, LOX, 24 h;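 for all read-outs here: colony formation assay with 24 h exposure at 37 °C, then 7 to 10 days of regrowth, crystal violet staining of colonies, control wells given medium alone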
Experimental: (§1) Human colon carcinoma cell line CX-1 or normal monkey kidney epithelial cell line CV-1 was chosen as representatives of cancer cells and normal cells, respectively. […] CX-1 cells (2,000 cells/well) and CV-1 cells (1,000 cells/well) were plated in 24-well plastic culture plates. […] The control received culture media only. Cells were treated with compounds of General Formulas (I) to (V) at 37° C. for 24 hours. After rinsing with fresh culture medium three times, the cells were further incubated at 37° C. for 7 to 10 days. Cell colonies were fixed and stained with 2% crystal violet in 70% ethanol for 10 minutes and rinsed in water. […] The selectivity is defined as the ratio of IC50 for CV-1 and IC50 for CX-1.

[6] = tested on: CRL 1420 cells; test: colony assay of Example 1 with human pancreatic carcinoma CRL 1420 cell line; type: cell-based; conditions: for Selectivity: CV-1/CRL-1420; for IC50: Homo sapiens, 24 h;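 for all read-outs here: colony formation assay, cells exposed for 24 h then regrown 7 to 10 days without compound, colonies stained with crystal violet, control given medium alone, normal reference CV-1 monkey kidney epithelial cells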
Experimental: as §1

[7] = CV-1, Table III, normal monkey kidney epithelial cells, colony count after 7 to 10 days
[8] = Table IV, human bladder carcinoma, 24 hours treatment
[9] = 5 mg/kg i.p. on day 1, 4, 8, 11
[10] = Table V, human melanoma, 24 hours treatment
[11] = Table VII, human pancreatic carcinoma, 24 hours treatment
[12] = Table III, normal monkey kidney epithelial cells, colony count after 7 to 10 days
[13] = 5 mg/kg i.p. on day 1, 4, 8, 10, 12

IC50 [5, 10]	Structure (SMILES)	IC50 [2, 7]	Selectivity (ratio of IC50 for CV-1 and IC50 for CX-1) [3]	IC50 [3]	IC50 ([2]; CV-1, 24 h, Table V)	Selectivity [5]	other results
	C=CCn1c(=Cc2oc3ccccc3[n+]2CC)sc(=C2Sc3ccccc3N2C)c1=O [Compound 3]	6 µg/mL	200	0.03 µg/mL			response vs control in vivo at 5 mg/kg ([1]; 5 mg/kg i.p. on day 1, 4, 8, 11, 14, 16): 218%
< 0.1 µg/mL	CCn1c(=Cc2oc3ccccc3[n+]2C)oc(=C2Sc3ccccc3N2C)c1=O [Compound 11]	> 20 µg/mL	> 667	0.03 µg/mL	> 30 µg/mL	> 300	Selectivity [4]: > 400; IC50 [4, 8]: 0.05 µg/mL; response vs control in vivo at 5 mg/kg [1, 9]: 132%; IC50 ([2]; CV-1, 24 h, Table IV): > 20 µg/mL
	CCn1c(=Cc2oc3ccccc3[n+]2C)sc(=C2Sc3ccccc3N2C)c1=O [Compound 12]		> 667			> 300	Selectivity [6]: 222; CRL-1420(IC50) [6, 11]: 0.09 µg/mL; Selectivity [4]: > 400; EJ (IC50) [4, 8]: 0.05 µg/mL; CV-1 (IC50) [2, 12]: > 20 µg/mL; CV-1 (IC50) ([2]; Table IV): > 20 µg/mL; CV-1 (IC50) ([2]; Table V): > 30 µg/mL; CV-1 (IC50) ([2]; Table VII): 20 µg/mL; LOX(IC50) [5, 10]: < 0.1 µg/mL; CX-1 (IC50) [3]: 0.03 µg/mL
0.1 µg/mL	CCn1c(=Cc2oc3cc4ccccc4cc3[n+]2CC)sc(=C2Sc3ccccc3N2C)c1=O [Compound 22]	10 µg/mL	1000	0.01 µg/mL	10 µg/mL	100	Selectivity [4]: 100; IC50 [4, 8]: 0.2 µg/mL; response vs control in vivo at 5 mg/kg [1, 9]: 179%; IC50 ([2]; CV-1, 24 h, Table IV): 20 µg/mL
	CCn1c(=Cc2sc3ccc4ccccc4c3[n+]2CC)sc(=C2Sc3ccccc3N2C)c1=O [Compound 30]	2 µg/mL		0.01 µg/mL			response vs control in vivo at 2.5 mg/kg ([1]; 2.5 mg/kg i.p. on day 1, 4, 6, 8): 171%
	CCn1c(=Cc2sc3ccccc3[n+]2CC)sc(=C2Sc3ccc(C)cc3N2C)c1=O [Compound 50]	8 µg/mL	200	0.04 µg/mL			response vs control in vivo at 5 mg/kg ([1]; 5 mg/kg i.p. on day 1, 2, 3, 6, 9, 10, 13): 163%
	CCn1c(=Cc2sc3c4ccccc4ccc3[n+]2CC)sc(=C2Sc3ccc(OC)cc3N2C)c1=O [Compound 53]	10 µg/mL	250	0.04 µg/mL			response vs control in vivo at 10 mg/kg ([1]; 10 mg/kg i.p. on day 1, 2, 3, 5, 8, 10, 13): 150%
	CCn1c(=Cc2oc3ccc4ccccc4c3[n+]2CC)sc(=C2Oc3ccc4ccccc4c3N2C)c1=O [Compound 87]	20 µg/mL	400	0.05 µg/mL			response vs control in vivo at 10 mg/kg ([1]; 10 mg/kg i.p. on day 1, 3, 6, 9, 10): 150%
	CCn1c(=Cc2cc[n+](CC)c3ccccc23)sc(=C2Sc3ccc4ccccc4c3N2C)c1=O [Compound 90]	8 µg/mL	200	0.04 µg/mL			response vs control in vivo at 5 mg/kg ([1]; 5 mg/kg i.p. on day 1, 8, 13): 163%
	CCn1c(=Cc2sc3c4ccccc4ccc3[n+]2CC)sc(=C2Sc3ccc4ccccc4c3N2C)c1=O [Compound 92]		500				response vs control in vivo at 2.5 mg/kg ([1]; 2.5 mg/kg i.p. on day 1, 2, 3, 4, 6, 7, 8, 10, 11): 186%; CV-1 (IC50) [2, 12]: 20 µg/mL; CX-1 (IC50) [3]: 0.04 µg/mL
	CCn1c(=Cc2sc3ccc(Cl)cc3[n+]2CC)sc(=C2Sc3ccc4ccccc4c3N2C)c1=O [Compound 94]	20 µg/mL	400	0.05 µg/mL			response vs control in vivo at 10 mg/kg ([1]; 10 mg/kg i.p. on day 1, 3, 6, 8, 10, 13, 15): 161%
	CCn1c(=CC2=[N+](CC)CCS2)sc(=C2SC3=C(CCCC3)N2C)c1=O [Compound 211]						response vs control in vivo at 5 mg/kg ([1]; 5 mg/kg i.p. on day 1, 4, 8, 10): 194%
0.03 µg/mL	CCn1c(=Cc2sc3c([n+]2CC)-c2ccccc2CC3)sc(=C2Oc3ccc(Cl)cc3N2C)c1=O [Compound 213]				6 µg/mL	200	Selectivity [6]: 200; IC50 [6, 11]: 0.03 µg/mL; Selectivity [4]: 200; IC50 [4, 8]: 0.03 µg/mL; IC50 ([2]; CV-1, 24 h, Table IV): 6 µg/mL; IC50 ([2]; CV-1, 24 h, Table VII): 6 µg/mL
0.04 µg/mL	CCn1c(=Cc2cccc[n+]2CC)sc(=C2Oc3c(ccc4ccccc34)N2C)c1=O [Compound 214]				20 µg/mL	500	response vs control in vivo at 10 mg/kg ([1]; 10 mg/kg i.p. on day 1, 4, 8, 10, 12): > 300%
0.02 µg/mL	CCn1c(=Cc2oc3c4ccccc4ccc3[n+]2CC)sc(=C2Sc3c(ccc4ccccc34)N2C)c1=O [Compound 238]	20 µg/mL	400	0.05 µg/mL	20 µg/mL	1000	Selectivity [6]: 1000; IC50 [6, 11]: 0.02 µg/mL; Selectivity [4]: 2000; IC50 [4, 8]: 0.01 µg/mL; IC50 ([2]; CV-1, 24 h, Table IV): 20 µg/mL; IC50 ([2]; CV-1, 24 h, Table VII): 20 µg/mL
0.05 µg/mL	CCn1c(=Cc2cccc[n+]2CC)sc(=C2Sc3c(ccc4ccccc34)N2C)c1=O [Compound 239]	20 µg/mL	200	0.1 µg/mL	20 µg/mL	400	Selectivity [6]: 400; IC50 [6, 11]: 0.05 µg/mL; Selectivity [4]: 250; IC50 [4, 8]: 0.08 µg/mL; IC50 ([2]; CV-1, 24 h, Table IV): 20 µg/mL; IC50 ([2]; CV-1, 24 h, Table VII): 20 µg/mL
	CCn1c(=Cc2sc3ccccc3[n+]2CC)sc(=C2Sc3ccc(Cl)cc3N2C)c1=O [Compound 244]	0.05 µg/mL		10 µg/mL			response vs control in vivo at 10 mg/kg ([1]; 10 mg/kg i.p. on day 1, 2, 6, 8, 13): 150%
	CCn1c(=Cc2oc3ccccc3[n+]2CC)sc(=C2Sc3ccccc3N2C)c1=O [Compound 245]		350				response vs control in vivo at 15 mg/kg ([1]; 15 mg/kg i.p. on day 1, 5, 9, 13, 19): 200%; CV-1 (IC50) [2, 12]: 0.02 µg/mL; CX-1 (IC50) [3]: 7 µg/mL
	CCn1c(=Cc2cc[n+](CC)c3ccccc23)sc(=C2C=Cc3ccccc3N2C)c1=O [Compound 256]	4 µg/mL	200	0.02 µg/mL			response vs control in vivo at 5 mg/kg [1, 13]: 171%
	CCn1c(=Cc2cccc[n+]2CC)sc(=C2Sc3ccccc3N2C)c1=O [Compound 283]						response vs control in vivo at 5 mg/kg ([1]; 5 mg/kg i.p. on day 1, 4, 8, 11, 14): > 350%
	CCn1c(=Cc2oc3c4ccccc4ccc3[n+]2CC)sc(=C2Oc3ccc4ccccc4c3N2C)c1=O [Compound 316]		100				response vs control in vivo at 5 mg/kg [1, 13]: > 340%; CV-1 (IC50) [2, 12]: 1 µg/mL; CX-1 (IC50) [3]: 0.01 µg/mL
0.005 µg/mL	CCn1c(=Cc2sc3ccc4ccccc4c3[n+]2CC)sc(=C2Sc3ccccc3N2C)c1=O [Compound 338]				2 µg/mL	400	response vs control in vivo at 4 mg/kg ([1]; 4 mg/kg i.p. on day 1, 3, 4, 6, 8, 10, 13): 194%
0.03 µg/mL	CCn1c(=Cc2scc(C)[n+]2CC)sc(=C2Sc3ccccc3N2C)c1=O [Compound 339]				10 µg/mL	333	response vs control in vivo at 5 mg/kg [1, 13]: > 340%
	CCn1c(=Cc2cccc[n+]2CC)sc(=C2Sc3ccccc3N2C)c1=O [Compound 342]						response vs control in vivo at 5 mg/kg ([1]; 5 mg/kg i.p. on day 1, 5, 8, 11, 14): > 350%
	CCn1c(=C2CCC[n+]3c2sc2ccccc23)sc(=C2Sc3ccccc3N2C)c1=O [Compound 343]						response vs control in vivo at 5 mg/kg ([1]; 5 mg/kg i.p. on day 1, 3, 4, 6, 8, 10, 13): 188%
	CCn1c(=Cc2scc(C)[n+]2CC)sc(=C2Sc3ccc4ccccc4c3N2C)c1=O [Compound 344]						response vs control in vivo at 5 mg/kg [1, 13]: > 288%
